In one series the test system is S. typhimurium TA100. Description: Colormetric Ames Test Procedure. The series is classed as cell-based. As to conditions: at the concentration given per compound (1.39-360.1 μM), 5 days at 37° C. Here is the method: The following procedures were performed aseptically. First, the day before the assay, as late as possible in the day, the vial labeled “G” Nutrient Broth was dispensed into the vial labeled S. typhimurium TA100 (lyophilized). The mixture was incubated over night at 37° C. for about 16-18 hours.
In appropriate vial, about 50 mg of the test compound was weighed out. About 1 mL of DMSO was added, and the mixture was filter sterilized with 25 mm syringe filter into a sterile tube. The concentration of DMSO was noted.
In a sterile 50 mL tube, about 15 mL of sterile Davis Mingioli Salt (see Davis & Mingioli, Aromatic biosynthesis, VII. Accumulation of two derivatives of shikimic acid by bacterial mutants, J. Bacteriol. 1953. August; 66(2): 129-36) was pipetted. This salt solution (Muta Component “A”) was comprised of (1) Milli-Q, 600 mL; (2) dipotassium phosphate, anhyd., 38.5 g; (3) monopotassium phosphate, anhyd. 11.0 g; (4) ammonium sulfate, 5.5 g; (5) trisodium citrate, 1.375 g; and (6) magnesium sulfate, 0.55 g. Appropriate volume of Milli-Q water was added to bring total volume to 1 L. Each component was dissolved one at a time in the above order. The solution was filtered through a 0.22 μm filter to remove sediment at a pH of about 7.3.
To the salt solution, small amounts of DMSO diluted compound was added, not to exceed 500 μl of DMSO. For example, about 100 μl aliquots of the DMSO diluted compound was added until the highest concentration is reached with compound still in solution. […] When the highest concentration of compound was determined, an appropriate volume of sterile Davis Mingioli salts was added to bring the total volume of solution to 17.5 mL. The concentration of compound and DMSO in the test solution was then noted.
The components were then mixed in a 50 mL sterile tube labeled Reaction Mixture as follows: 21.62 mL of A+4.75 ml of B (D-glucose, 40% w/v)+2.38 mL of C (bromocresol purple, 5 mg/ml)+1.19 ml of D (D-biotin, 0.1 mg/ml)+0.060 ml (60 μl) of E (L-histidine, 0.1 mg/ml). The vial was vortexed and then set aside.
The S9 Mixture was prepared by reconstituting the S9 enzymes with 2.1 mL of sterile water. This was labeled “S9F.” In a 50 mL tube labeled S9 Mixture, the following were mixed together (all available from EBIP): 0.4 mL of S9A (MgCl2, 0.4 M and KCl, 1.65 M)+0.09 mL of S9B (glucose-6-phosphate, 1.0 M)+0.81 mL of S9C (nicotine amide di-nucleotide phosphate, 0.1 M)+9.98 mL of S9D (phosphate buffer, pH 7.4)+6.72 mL of S9E (sterile distilled water)+2 mL of S9F (Rate liver extract). The vial was vortexed and then set aside.
Sterile tubes were labeled as follows: Blank, Background I, Background II, Standard Mutagen, Compound 1 (−), Compound 1 (S9+), Compound 2 (−), Compound 2 (S9+), Compound 3 (−), Compound 3 (S9+). Next, about 2.5 mL of the reaction mix was added to each tube. Then, about 2 mL of the S9 mix was added to the Background II and the S9+ compounds. Next, to each of the compound vials, about 8 mL of the prepared compounds was added. The concentration of the compound in the final solution was noted. Then, about 100 μl of the standard mutagen was added to the Standard mutagen vial. (NaN3 for non S9 activation and 2-aminoanthracene with S9 activation). The appropriate volume of sterile water was next added for a final volume of 17.5 mL. Then, about 5 μl of bacteria was added to each tube except the Blank. Each vial was vortexed and poured into a sterile multi-channel pipette boat, and pipette 200 μl per well into the 96 well plate with a multi channel pipetter. The plates were labeled, covered, placed in zip lock bag, and then incubated for 5 days at 37° C.
On day five of the incubation, the plates were removed from the incubator and placed in a laminar flow hood. The Blank was analyzed first. If there were any wells that were yellow, the test was considered contaminated and the results invalid. […]

Series [1] relates to M-1 Clone 20; human primary cyst epithelial cells (ADPKD cells). Put plainly: MTT cell proliferation assay with cAMP (FIGS. 9A-9B). The series is classed as cell-based. As to conditions: 25 uM, 48 hours. Here is the method: Various compounds were tested for their effects on cell proliferation. In the study, the cell types were M-1 Clone 20, which is an immortalized cell line that mimics PKD, and human primary cyst epithelial cells, or ADPKD cells. The compounds were tested at 1 μM to 100 μM concentrations.
M-1 clone 20 (“M1 Clone 20”) cells are a model of PKD-like cells, which were created by stably transfecting parental “normal” M-1 immortalized renal cortical collecting duct cells with the C-terminal cytosolic domain (or C-tail) of mouse polycystin-1 (the protein product of the Pkd1 gene. The overexpressed C-tail acts in a dominant-negative fashion, conferring the PKD phenotype to these cells. Their characterization is described in: Sutters, M., Yamaguchi, T., Maser, R. L., Magenheimer, B. S., St. John, P. L., Abrahamson, D. R., Grantham, J. J. and Calvet, J. P. (2001) Polycystin-1 transforms the cAMP growth-responsive phenotype of M-1 cells. Kidney Int. 60, 484-494.
FIGS. 9A-9B include graphs that show cells grown in the vehicle (i.e. DMSO at two different volumes of 1 uL and 5 uL respectively), cAMP only, and then under the treatment drugs, all of which also had cAMP in them. The comparison drug used was 10 uM of gamendazole. […] Absorbance is a measure of cell number.
The comparison drug used was 10 uM Gamendazole. The MTT cell proliferation assay was carried out to assess cell number—cell proliferation is essentially cell number. […] Thus, absorbance is a measure of cell number, or cell proliferation. The reference bar is the third bar from the left (cAMP)—the degree of inhibition should be compared to that bar.
(Formazan colour is commonly taken as a measure of viable cells.)

The test system of series [2] is Salmonella Typhimurium TA 100. Put plainly: Ames test for mutagenicity (plate assay, colony count). The note with it: 48 hours at 37° C.; for Ames test (+)S9 0.1 mg/pl. / Ames test (+)S9 1 mg/pl. / Ames test (+)S9 10 mg/pl.: (+)S9 mix; for Ames test (−)S9 0.1 mg/pl. / Ames test (−)S9 1 mg/pl. / Ames test (−)S9 10 mg/pl.: (−)S9 mix. On the technique in general: The Ames test detects mutagens through reverse mutation in bacteria.

A further series has as its system rats. Description: Toxicology: organs sectioned and examined after dosing. The series is classed as in vivo. As to conditions: 200 mg/kg IP, five animals. As for the experimental part:
In at least two of the animals in each group, the pancreas, right kidney and part of the liver, heart, spleen, and lung were removed and evaluated for toxic effects.
The toxicology of animals receiving some of the compounds of the present invention IP and/or oral was examined. At the time of sacrifice samples of liver, pancreas, heart, lung, spleen and kidney were removed, visually inspected, and immersion fixed in Bouin's solution for a minimum of 48 hours. All organs were then sectioned and examined for evidence of necrosis, inflammation, hemorrhage, and possible tumors. The major veins in each tissue were also examined for distention, especially in the liver and pancreas, and any other abnormalities are compared to known histopathological states. In addition to the above, the heart was examined for evidence of fibrosis in the muscular walls, and to compare the thickness of the ventricular walls. The pancreas was examined mainly for calcium deposits, while the lung was checked for signs of any exudates or hemorrhage, especially in the alveolar spaces. Finally, the kidney was examined mainly for microscopic hemorrhages, tubular necrosis or alterations in the glomeruli in the cortex.
In this example, the effects of RC-MC-30 were compared with those of lonidamine in sexually mature rats. As discussed above, each of the rats (8 total) received a single injection and were sacrificed five days after injection and examined.

The test system of a further series is Male Long Evans rats. Put plainly: In vivo antispermatogenic testing in Long Evans rats.

Molecules are shown by their SMILES. Entries after “also recorded” stand apart in the source; their conditions may differ.

For `COC(=O)c1nn(Cc2ccc(Cl)cc2Cl)c2cc(OC(F)(F)F)ccc12` [JWS-2-100, 1-(2,4-dichlorobenzyl)-6-trifluoromethoxy-1H-indazole-3-carboxylic acid methyl ester], in the series with S. typhimurium TA100, the “Colormetric Ames test, with S9” value is “Pass*” and the “Colormetric Ames test, without S9” value is given as “Pass*”.

With `O=C(O)c1nn(Cc2ccc(Cl)cc2Cl)c2cc(OC(F)(F)F)ccc12` [JWS-2-102, 1-(2,4-dichlorobenzyl)-6-trifluoromethoxy-1H-indazole-3-carboxylic acid], in the series with S. typhimurium TA100, the “Colormetric Ames test, with S9” value is on record as “Pass*” and the “Colormetric Ames test, without S9” value was “Pass*”.

Consider `NNC(=O)c1nn(Cc2ccc(F)cc2Cl)c2cc(Cl)ccc12` [JWS-2-22, 1-(2-chloro, 4-fluorobenzyl)-6-chloro-1H-indazole-3-carboxylic acid hydrazide], for which the “Inhibition of cell proliferation (MTT absorbance)” value in series [1] is recorded as “quite effective in inhibiting cell proliferation”. Further, in series [2], the “Ames test (+)S9 0.1 mg/pl.” value is “Pass”, the “Ames test (+)S9 1 mg/pl.” value was “Pass”, the “Ames test (+)S9 10 mg/pl.” value is “Pass” and the “Ames test (−)S9 0.1 mg/pl.” value is on record as “Pass”. In series [2], the “Ames test (−)S9 1 mg/pl.” value is given as “Pass” and the “Ames test (−)S9 10 mg/pl.” value is “Pass”.

Regarding `COc1ccc2c(/C=C/C(=O)O)nn(Cc3ccc(Cl)cc3Cl)c2c1` [JWS-2-132, 3-[1-(2,4-dichlorobenzyl)-6-methoxy-1H-indazol-3-yl]acrylic acid], in the series on S. typhimurium TA100, the “Colormetric Ames test, with S9” value is “Pass*” and the “Colormetric Ames test, without S9” value was “Pass*”.

As for `COC(=O)/C=C/c1nn(Cc2ccc(Cl)cc2Cl)c2cc(OC(F)(F)F)ccc12` [JWS-2-110, 3-[1-(2,4-dichlorobenzyl)-6-trifluoromethoxy-1H-indazol-3-yl]acrylic acid methyl ester], in the series with S. typhimurium TA100, the “Colormetric Ames test, with S9” value is “Pass*” and the “Colormetric Ames test, without S9” value was “Pass*”.

As to `O=C(O)/C=C/c1nn(Cc2ccc(Cl)cc2Cl)c2cc(OC(F)(F)F)ccc12` [JWS-2-112, 3-[1-(2,4-dichlorobenzyl)-6-trifluoromethoxy-1H-indazol-3-yl]acrylic acid], in the series on S. typhimurium TA100, the “Colormetric Ames test, with S9” value is given as “Pass*” and the “Colormetric Ames test, without S9” value is given as “Pass*”.

Take `NNC(=O)c1nn(Cc2ccc(Cl)cc2Cl)c2cc(OC(F)(F)F)ccc12` [JWS-2-104, 1-(2,4-dichlorobenzyl)-6-trifluoromethoxy-1H-indazole-3-carboxylic acid hydrazide]: in the series on S. typhimurium TA100, the “Colormetric Ames test, with S9” value is reported as “Pass*” and the “Colormetric Ames test, without S9” value is listed as “Pass*”.

For the molecule `COC(=O)c1nn(Cc2ccc(Cl)cc2Cl)c2cc(OC)ccc12` [JWS-2-120, 1-(2,4-dichlorobenzyl)-6-methoxy-1H-indazole-3-carboxylic acid methyl ester], in the series with S. typhimurium TA100, the “Colormetric Ames test, with S9” value is recorded as “Pass*” and the “Colormetric Ames test, without S9” value is listed as “Pass*”.

With `COC(=O)c1nn(Cc2ccc(Cl)cc2Cl)c2cccc(C)c12` [JWS-2-92, 1-(2,4-dichlorobenzyl)-4-methyl-1H-indazole-3-carboxylic acid methyl ester], in the series on S. typhimurium TA100, the “Colormetric Ames test, with S9” value is reported as “Pass*” and the “Colormetric Ames test, without S9” value was “Pass*”.

`O=C(O)c1nn(Cc2ccc(Cl)cc2Cl)c2cc(C(F)(F)F)ccc12` [RC-MC-100, 1-(2,4-dichlorobenzyl)-6-trifluoromethyl-1H-indazole-3-carboxylic acid]: in the series with rats, the “Clinical signs after IP injection” value is “all 5 animals tested became lethargic and ceased moving; also recorded: minor tremors in both hindlimbs which lasted approximately 30 minutes; also recorded: Two of the animals also had wet rales”; the “Deaths after IP injection” value is “Three of the animals died 2-3 hours later”; the “Recovery after IP injection” value is “the other two recovered and did not show any other symptoms”. For the same molecule, the “Mortality (25 mg/kg)” value in the series with Male Long Evans rats (25 mg/kg single i.p. injection, […]) is listed as 0/5. Besides, the “Response 25 mg/kg” value in the series on Male Long Evans rats (25 mg/kg single i.p. injection, animals responding out of animals surviving, five days following injection) is listed as 0/5. In addition, the “Mortality (200 mg/kg)” value in the series on Male Long Evans rats (200 mg/kg single i.p. injection, […]) is given as 0/5. The “Response 200 mg/kg” value in the series with Male Long Evans rats (200 mg/kg single i.p. injection, animals responding out of animals surviving, five days following injection) was 0/5. Also, in series [2], the “Ames test (+)S9 0.1 mg/pl.” value is “Pass”, the “Ames test (+)S9 1 mg/pl.” value is listed as “Pass”, the “Ames test (+)S9 10 mg/pl.” value is listed as “Pass” and the “Ames test (−)S9 0.1 mg/pl.” value was “Pass”. For the same molecule, in series [2], the “Ames test (−)S9 1 mg/pl.” value is reported as “Pass” and the “Ames test (−)S9 10 mg/pl.” value is on record as “Pass”.

On to `COc1ccc2c(C(=O)O)nn(Cc3ccc(Cl)cc3Cl)c2c1` [JWS-2-122, 1-(2,4-dichlorobenzyl)-6-methoxy-1H-indazole-3-carboxylic acid], for which, in the series on S. typhimurium TA100, the “Colormetric Ames test, with S9” value was “Pass*” and the “Colormetric Ames test, without S9” value is listed as “Pass*”.
